Test results reported in PubChem BioAssay AID179 (DTP/NCI, 2004).
Where “and” joins values, the source holds several entries; their conditions need not be identical. Equal values may be shown once. Calls of active or inactive are those of the source.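 The calls were made as follows: active = compounds giving half or more protection of infected cells from virus-caused growth loss, again on retest; inactive = the rest.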

System: CEM cells HIV-1 protection, formazan growth assay
Assay: NCI AIDS Antiviral Assay
Settings: for IC50: measured here: growth of uninfected CEM cells
Method in brief: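 Screen of anti-HIV-1 activity in human CEM cells using a formazan-based growth measurement at five drug concentrations. Hits with 50% or greater protection were repeated, and confirmation required reproducible complete protection.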

SMILES | EC50 [µM] | IC50 | outcome
CNS(=O)(=O)NN(C)S(=O)(=O)c1ccc(C)cc1 | > 617 | > 200 µM | –
CSc1c(C(C)=O)c(O)n(-c2ccc(Cl)cc2)c(=O)c1C#N | 35.5 | 36.3 µM | –
O=c1[nH]c(=O)n(C2CC(O)C(CO)O2)c2nc3cc4ccccc4cc3nc12 (centres undefined) | > 200 | > 200 µM | –
CC(=O)OCC1OC(OC(C)=O)C(On2nnc3c(-c4ccccc4)c(C)nn32)C(OC(C)=O)C1OC(C)=O (centres undefined) | > 60.3 | 31.6 µM | –
CSc1n[nH]c(NC(=O)c2ccccc2Br)n1 | > 575 | 427 µM | –
O=C1C2CC=CCC2C(=O)N1n1c(-c2ccccc2)n[nH]c1=O (centres undefined) | > 200 | > 200 µM | –
O=C(CC(=O)n1nc(-c2ccccc2)c(N=Nc2ccccc2Cl)c1-c1ccccc1)Nc1ccc(Cl)cc1 | > 33.9 | > 33.9 µM | –
COc1ccc(CC2=NCCc3cc(OC)c(OC)cc32)cc1Br | > 240 | 3.47 µM | –
CCCCCCCCCCCCCCCCCC(=O)OCC(O)CO (centres undefined) | > 2.09 | > 2.09 µM | –
CC(C)C(C(=O)O)n1[se]c2ccccc2c1=O (centres undefined) | 15.5 | 120 µM | –
CC1=CC[C@H](C[C@H](C#CCCCC2OCCO2)O[Si](C(C)C)(C(C)C)C(C)C)C(=O)CC1 | > 200 | 9.77 µM | –
CCOC(=O)N1CCC2(CC1)C[C@](C)(C(C)=O)C(C)O2 (some centres undefined) | > 200 | > 200 µM | –
COC(=O)C1(C(=O)OC)CC2c3c(c4ccccc4n3C)CC(C1=O)N2Cc1ccccc1 (centres undefined) | – | – | inactive
C=CCCC1CCCNC1=S (centres undefined) | > 776 | 708 µM | –
N#CC(NNC(=O)Cc1ccccc1)c1ccc([N+](=O)[O-])cc1 (centres undefined) | > 115 | > 115 µM | –
COc1cc2c(cc1OC)C(C(CBr)CBr)N(C1CCCC1)CC2 (centres undefined) | > 389 | > 389 µM | –
CC1OC(OCC2OC(Oc3ccc4c(=O)c(-c5ccc6c(c5)OCO6)coc4c3)C(O)C(O)C2O)C(O)C(O)C1O (centres undefined) | 129 | 182 µM | –

SMILES | EC50 [µM] | IC50 | outcome
C1=CC2CCC1CN2CCC1CNc2ccccc21 (centres undefined) | – | – | inactive
O=S(=O)(O)C(=Nc1cccc(Cc2ccccc2)c1)Nc1cccc(Cc2ccccc2)c1 | > 200 | 14.8 µM | –
N=c1c2ccccc2nnn1-c1ccccc1[N+](=O)[O-] | – | – | inactive
COc1ccc(C(=O)C(C(=O)CC(=O)Nc2cccc(C(F)(F)F)c2)c2ccc(OC)cc2)cc1 (centres undefined) | > 14.8 | > 14.8 µM | –
COC(=O)C1(NC(=O)C(N)CC(=O)O)CC1(C)C (centres undefined) | > 200 | > 200 µM | –
N#CC(C#N)=C1C(=O)NC(N)=C1C#N | > 200 | > 200 µM | –
O=S(=O)(O)c1ccc(NN(c2c(O)ccc3ccccc23)S(=O)(=O)O)cc1 | > 550 | 229 µM | –
O=C([O-])C(F)(F)F.[C-]#[O+].[C-]#[O+].[C-]#[O+].[C-]#[O+].[C-]#[O+].[Mn] | > 813 | 44.7 µM | –
O=C(O)c1[nH][nH]c(=O)c1N=Nc1ccc(/C=C/c2ccc(N=Nc3c(C(=O)O)[nH][nH]c3=O)cc2S(=O)(=O)O)c(S(=O)(=O)O)c1 | > 200 | > 200 µM | –
Nc1ccc(SSc2ccc(N)cc2)cc1 | > 200 | 25.1 µM and 29.5 µM | –
Cc1ccc2nnn3c(=N)nc(N)nc3c2c1 | > 79.4 | > 79.4 µM | –
C=C(c1ccccc1)c1ccccc1-c1cc(-c2ccccc2)cc(-c2ccccc2)n1 | > 200 | 25.1 µM | –
CNC(=S)NC(=S)N(C)C | – | – | inactive
COc1cc2oc(=O)cc(C)c2c(OC)c1OC(C)=O | > 200 | > 200 µM | –
C=CC(=O)NC(N)=NC#N | > 1820 | 60.3 µM | –
CC(=O)OC[C@]12[C@H](OC(C)=O)[C@H](OC(C)=O)[C@@H]3C(O)[C@@]14OC3(C)COC(=O)c1cccnc1CCC(C)C(=O)OC([C@H](OC(C)=O)[C@@H]2OC(=O)c1ccccc1)[C@]4(C)O (some centres undefined) | > 30.2 | > 30.2 µM | –
O=C(c1c2c(cc3c1CC1(Cc4cc5c(cc4C1)CCCC5)C3)CCCC2)C(Br)Br | > 100 | 4.9 µM | –
